Results taken from US20240025862A1, “SUBSTITUTED N-PHENYLURACILS AND SALTS THEREOF, AND USE THEREOF AS HERBICIDAL ACTIVE SUBSTANCES” (Bayer Aktiengesellschaft, priority 2020, published 2024).

What was measured:
Assay type in all cases: in vivo
[1] = tested on: Abutilon theophrasti (ABUTH); assay: Post-emergence herbicidal action, greenhouse pot test; details: Abutilon theophrasti, 504 h, rated visually after about 3 weeks vs untreated controls, 100% = plants have died
Method in brief: (§1)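 Activity was scored by eye about 3 weeks after treatment against untreated plants, where 100% means dead plants and 0% means no difference. Plants at the one-leaf stage received a foliar spray of WP or EC formulations in water plus 0.5% additive (600 l/ha, up to 20 g/ha). Plants were grown in sandy loam pots in a greenhouse for 2–3 weeks before spraying.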

[2] = tested on: Amaranthus retroflexus (AMARE); assay: as above; details: Amaranthus retroflexus, 504 h, rated visually after about 3 weeks vs untreated controls, 100% = plants have died
Method in brief: as §1

[3] = tested on: Avena fatua (AVEFA); assay: as above; details: Avena fatua, 504 h, 20 g/ha, rated visually after about 3 weeks vs untreated controls, 100% = plants have died, read-out: Post-emergence action at 20 g/ha against AVEFA in %
Method in brief: as §1

[4] = tested on: Lolium rigidum (LOLRI); assay: as above; details: Lolium rigidum, 504 h, dosage 20 g/ha, read-out: Post-emergence action against LOLRI in %
Method in brief: as §1

[5] = tested on: Pharbitis purpurea (PHBPU); assay: as above; details: Ipomoea purpurea, 504 h, read-out: Post-emergence action against PHBPU in %
Method in brief: as §1

[6] = tested on: Polygonum convolvulus (POLCO); assay: as above; details: Fallopia convolvulus, 504 h, dosage 20 g/ha, read-out: Post-emergence action against POLCO in %
Method in brief: as §1

[7] = tested on: Veronica persica (VERPE); assay: as above; details: Veronica persica, 504 h, read-out: Post-emergence action against VERPE
Method in brief: as §1

[8] = tested on: Viola tricolor (VIOTR); assay: as above; details: Viola tricolor, 504 h, read-out: Post-emergence action against VIOTR
Method in brief: as §1

[9] = tested on: Alopecurus myosuroides (ALOMY); assay: Post-emergence herbicidal action, greenhouse pot test (also comparative test C); details: Alopecurus myosuroides, 504 h, rated visually after about 3 weeks vs untreated controls, 100% = plants have died
Method in brief: (§2)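 Visual rating against untreated controls, about 3 weeks after spraying, from 0% (like control) to 100% (plants dead). Weeds were treated at the one-leaf stage, 2–3 weeks after sowing in sandy loam, with aqueous WP/EC spray containing 0.5% additive at 600 l/ha. Doses were ≤20 g/ha, or ≤5 g/ha for comparative test C.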

[10] = tested on: Echinochloa crus-galli (ECHCG); assay: as above
Method in brief: as §2

[11] = tested on: Matricaria inodora (MATIN); assay: as above; details: Tripleurospermum inodorum, 504 h, read-out: Post-emergence action against MATIN in %
Method in brief: as §2

[12] = tested on: Setaria viridis (SETVI); assay: as above; details: Setaria viridis, 504 h
Method in brief: as §2

[13] = tested on: Glycine max (GLXMA); assay: Post-emergence crop plant compatibility, greenhouse pot test
Method in brief: (§3)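 Values are visual % damage versus untreated controls (100% = plants died) about 3 weeks after treatment. Plants in sandy loam were sprayed at the one-leaf stage, 2–3 weeks after sowing, with aqueous WP/EC preparations plus 0.5% additive at 600 l/ha; a/b/c mark different dose levels.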

[14] = tested on: Triticum aestivum (TRZAS); assay: as above; details: vs untreated controls
Method in brief: as §3

[15] = tested on: Zea mays (ZEAMX); assay: as above; details: 1.25 g/ha, vs untreated controls
Method in brief: as §3

[16] = tested on: Oryza sativa (ORYSA); assay: Post-emergence crop plant compatibility, greenhouse pot test (also comparative test C); details: vs untreated controls
Method in brief: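 Visual damage versus untreated plants (0% = like control, 100% = plants died) was scored about 3 weeks after a post-emergence spray in greenhouse pots. Treatment: one-leaf stage, WP or EC in water at 600 l/ha with 0.5% additive; a/b/c mark different dosages on the same crop.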

Cn1c(C(F)(F)F)cc(=O)n(-c2cc(Oc3ccccc3OCC(=O)OCC#N)c([N+](=O)[O-])cc2F)c1=O [I.6-176, Cyanomethyl (2-{4-fluoro-5-[3-methyl-2,6-dioxo-4-(trifluoromethyl)-3,6-dihydropyrimidin-1(2H)-yl]-2-nitrophenoxy}phenoxy)acetate]
pest or weed control at 1.25 g/ha ([1]; 1.25 g/ha, read-out: Post-emergence action at 1.25 g/ha against ABUTH in %): 100%
pest or weed control at 5 g/ha ([1]; 5 g/ha, read-out: Post-emergence action at 5 g/ha against ABUTH in %): 100%
pest or weed control at 20 g/ha ([1]; 20 g/ha, read-out: Post-emergence action at 20 g/ha against ABUTH in %): 100%
pest or weed control at 1.25 g/ha ([2]; 1.25 g/ha, read-out: Post-emergence action at 1.25 g/ha against AMARE in %): 100%
pest or weed control at 5 g/ha ([2]; 5 g/ha, read-out: Post-emergence action at 5 g/ha against AMARE in %): 100%
pest or weed control at 20 g/ha ([2]; 20 g/ha, read-out: Post-emergence action at 20 g/ha against AMARE in %): 100%
pest or weed control at 20 g/ha [3]: 80%
pest or weed control at 20 g/ha [4]: 90%
pest or weed control at 1.25 g/ha ([5]; dosage 1.25 g/ha): 80%
pest or weed control at 5 g/ha ([5]; dosage 5 g/ha): 100%
pest or weed control at 20 g/ha ([5]; dosage 20 g/ha): 100%
pest or weed control at 20 g/ha [6]: 100%
pest or weed control at 1.25 g/ha ([7]; 1.25 g/ha): 80%
pest or weed control at 5 g/ha ([7]; 5 g/ha): 90%
pest or weed control at 20 g/ha ([7]; 20 g/ha): 100%
pest or weed control at 1.25 g/ha ([8]; 1.25 g/ha): 100%
pest or weed control at 5 g/ha ([8]; 5 g/ha): 100%
pest or weed control at 20 g/ha ([8]; 20 g/ha): 100%
pest or weed control at 5 g/ha ([9]; 5 g/ha, read-out: Post-emergence action at 5 g/ha against ALOMY in %): 80%
pest or weed control at 20 g/ha ([9]; 20 g/ha, read-out: Post-emergence action at 20 g/ha against ALOMY in %): 90%
Post-emergence action at 1.25 g/ha against ECHCG in % ([10]; 1.25 g/ha, rated visually after about 3 weeks vs untreated controls, 100% = plants have died): 100%
pest or weed control at 5 g/ha ([10]; Echinochloa crus-galli, 504 h, dosage 5 g/ha, read-out: Post-emergence action against ECHCG in %): 100%
pest or weed control at 20 g/ha ([10]; Echinochloa crus-galli, 504 h, dosage 20 g/ha, read-out: Post-emergence action against ECHCG in %): 100%
pest or weed control at 5 g/ha ([11]; dosage 5 g/ha): 80%
pest or weed control at 20 g/ha ([11]; dosage 20 g/ha): 100%
pest or weed control at 20 g/ha ([12]; 20 g/ha, read-out: Post-emergence action against SETVI): 100%
pest or weed control at 1.25 g/ha ([12]; dosage 1.25 g/ha, read-out: Post-emergence action against SETVI in %): 100%
pest or weed control at 5 g/ha ([12]; dosage 5 g/ha, read-out: Post-emergence action against SETVI in %): 100%
Post-emergence action against GLXMA in % ([13]; 1.25 g/ha): 20%
Post-emergence action against GLXMA in % ([13]; 5 g/ha): 20%
Post-emergence action against TRZAS (crop plant compatibility) ([14]; 1.25 g/ha): 20%
Post-emergence action against TRZAS (crop plant compatibility) ([14]; 5 g/ha): 20%
Post-emergence action against TRZAS (crop plant compatibility) ([14]; 20 g/ha): 20%
Post-emergence action against ZEAMX (crop plant compatibility) [15]: 10%
Post-emergence action against ORYSA (crop plant compatibility) ([16]; 1.25 g/ha): 0%
Post-emergence action against ORYSA (crop plant compatibility) ([16]; 5 g/ha): 20%
